US10682371B2, “Small molecule conjugates specifically activated in tumor microenvironment for targeting and use thereof” (priority 2014, dated 2020)
Read-outs that look alike come from different tables or passages of the source.

Tests used:
[1] = test system: Human breast cancer MDA-MB435 tumor tissue homogenate; assay type: biochemical; conditions: for Activation ratio (%) in homogenates from different tumor tissues: Human breast cancer MDA-MB435
Summary of the method: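 Compounds at 1 mg/ml incubated at 37° C. with 100 μg acidified (pH6.0) MDA-MB435 human breast tumor tissue homogenate, as a source of proteases for compound activation.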

[2] = test system: Human chronic leukemia K562 tumor tissue homogenate; assay type: biochemical; conditions: for Activation ratio (%) in homogenates from different tumor tissues: Human chronic leukemia K562
Summary of the method: (§1)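 Compounds at 1 mg/ml were incubated at 37°C with 100 μg acidized tissue homogenate (pH 6.0). Activation by homogenate proteases was assessed.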

[3] = test system: Human colon cancer HT-29 tumor tissue homogenate; assay type: biochemical; conditions: for Activation ratio (%) in homogenates from different tumor tissues: Human colon cancer HT-29
Summary of the method: as §1

[4] = test system: Human liver cancer Hepg2 tumor tissue homogenate; assay type: biochemical; conditions: for Activation ratio (%) in homogenates from different tumor tissues: Human liver cancer Hepg2
Summary of the method: as §1

[5] = test system: Human non-small cell lung cancer A549 tumor tissue homogenate; assay type: biochemical; conditions: for Activation ratio (%) in homogenates from different tumor tissues: Human non-small cell lung cancer A549
Summary of the method: as §1

[6] = test system: Human ovarian cancer SK-OV-3 tumor tissue homogenate; assay type: biochemical; conditions: for Activation ratio (%) in homogenates from different tumor tissues: Human ovarian cancer SK-OV-3
Summary of the method: as §1

[7] = test system: Human pancreatic cancer Panc-1 tumor tissue homogenate; assay type: biochemical; conditions: for Activation ratio (%) in homogenates from different tumor tissues: Human pancreatic cancer Panc-1
Summary of the method: as §1

[8] = test system: Human prostate cancer PC-3 tumor tissue homogenate; assay type: biochemical; conditions: for Activation ratio (%) in homogenates from different tumor tissues: Human prostate cancer PC-3
Summary of the method: as §1

[9] = test system: Human renal cancer OS-RC-2 tumor tissue homogenate; assay type: biochemical; conditions: for Activation ratio (%) in homogenates from different tumor tissues: Human renal cancer OS-RC-2
Summary of the method: as §1

D121 lung tumor cells = assay type: in vivo, C57 mice; conditions: for Treatment effects on C57 mice, in words: compared to the control group and the other treatment groups
Summary of the method: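 Endpoint is tumor inhibition rate from tumor size (mm^3) after weekly drug treatment for 4 weeks, begun once s.c. tumors from 10^6 live D121 cells reached 0.3-0.4 cm. Before challenge, C57 mice received three i.p. doses of 5×10^5 irradiated D121 cells, two weeks apart, or saline.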

tumor CD8+ T cells = assay type: in vivo, C57 mice
Summary of the method: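 Tumour tissue homogenised and single cells filtered, washed, then stained 1 h at ambient temperature with CD45-PE and CD8-FITC antibodies. After washes in PBS with 1% FBS, flow cytometry gave the fraction of CD8⁺ cells among CD45⁺ leucocytes.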

[10] = Day 18, immunized C57 mice, drugs 13.2 μmol/kg, PDL1 antibody 5 μg/kg, weekly for 4 weeks
[11] = 100 μg acidized homogenate pH6.0, 1 mg/ml, 37°
[12] = D121 immunized C57 mice, drugs weekly for 4 weeks, Day 18 (Example 23)
[13] = D121 immunized C57 mice (Example 23), CD8 positive cells in CD45 positive cells of tumor

| SMILES | Treatment effects on C57 mice, in words (D121 lung tumor cells) | Activation ratio (%) in homogenates from different tumor tissues [1, 11] | Activation ratio (%) in homogenates from different tumor tissues [2, 11] | Activation ratio (%) in homogenates from different tumor tissues [3, 11] | Activation ratio (%) in homogenates from different tumor tissues [4, 11] | Activation ratio (%) in homogenates from different tumor tissues [5, 11] | Activation ratio (%) in homogenates from different tumor tissues [6, 11] | Activation ratio (%) in homogenates from different tumor tissues [7, 11] | Activation ratio (%) in homogenates from different tumor tissues [8, 11] | Activation ratio (%) in homogenates from different tumor tissues [9, 11] | Size of tumor (mm^3) Day 18 (D121 lung tumor cells; [12]) | inhibitory rate on tumor % Day 18 (D121 lung tumor cells; [12]) | CD8: CD45 (%) (tumor CD8+ T cells; [13]) | further results |
| --- | --- | --- | --- | --- | --- | --- | --- | --- | --- | --- | --- | --- | --- | --- |
| COCCOCC(=O)N[C@H](C)C(=O)N[C@H](C)C(=O)N[C@H](CC(N)=O)C(=O)Nc1ccc(COC(=O)N2[C@@H]3CN4C5=C(C(=O)C(N)=C(C)C5=O)[C@H](COC(N)=O)[C@]4(OC)[C@@H]32)cc1 [Compound E1, 2-(2-methoxyethoxy) acetyl-L-Ala-L-Ala-L-Asn-4-amino benzyl mitomycin] | greatly improved |  |  |  |  |  |  |  |  |  |  |  |  | Activation ratio (%) in homogenates from different tumor tissues ([1]; 37° C., 1 mg/ml): 97.3%; Activation ratio (%) in homogenates from different tumor tissues ([2]; 37° C., 1 mg/ml): 74.5%; Activation ratio (%) in homogenates from different tumor tissues ([3]; 37° C., 1 mg/ml): 94.2%; Activation ratio (%) in homogenates from different tumor tissues ([4]; 37° C., 1 mg/ml): 94.6%; Activation ratio (%) in homogenates from different tumor tissues ([5]; 37° C., 1 mg/ml): 97.4%; Activation ratio (%) in homogenates from different tumor tissues ([6]; 37° C., 1 mg/ml): 93.5%; Activation ratio (%) in homogenates from different tumor tissues ([7]; 37° C., 1 mg/ml): 89.4%; Activation ratio (%) in homogenates from different tumor tissues ([8]; 37° C., 1 mg/ml): 78.9%; Activation ratio (%) in homogenates from different tumor tissues ([9]; 37° C., 1 mg/ml): 99.7%; Size of tumor (mm^3) Day 18 (D121 lung tumor cells; [10]): 237.60 ± 358.57 mm^3; inhibitory rate on tumor % Day 18 (D121 lung tumor cells; [10]): 83.27%; Effect together with PDL1-antibody in promoting immunization and treatment, in words (D121 lung tumor cells; combination with PDL1-antibody): excellent synergistic effect; CD8: CD45 (%) (tumor CD8+ T cells; ratio of CD8 positive cells in CD45 positive cells of tumor, flow cytometry, drugs 13.2 μmol/kg, PDL1 antibody 5 μg/kg): 18.4% |
| CCCCCOC(=O)Nc1nc(=O)n([C@@H]2O[C@H](C)[C@@H](OC(=O)OCc3ccc(NC(=O)[C@H](CC(N)=O)NC(=O)[C@H](C)NC(=O)[C@H](C)NC(=O)CCCCCCC(=O)NO)cc3)[C@H]2O)cc1F [Compound S3, 4-N—(N—(N—(N-(8-(N-hydroxylamino)-1,8-octandioic acid-1-monoacyl)-L-alanyl)-L-alanyl)-L-asparaginyl)-amino benzyl alcohol-capecitabine-carbonic acid diester] | greatly improved |  |  |  |  |  |  |  |  |  |  |  |  | Activation Efficiencies (%) ([1]; Human breast cancer MDA-MB435 tumor tissue homogenate (30 μg/ml), 1 mg/ml compound): 70.1%; Activation Efficiencies (%) ([2]; Human chronic leukemia K562 tumor tissue homogenate (30 μg/ml), 1 mg/ml compound): 93.2%; Activation Efficiencies (%) ([3]; Human colon cancer HT-29 tumor tissue homogenate (30 μg/ml), 1 mg/ml compound): 81.7%; Activation Efficiencies (%) ([4]; Human liver cancer Hepg2 tumor tissue homogenate (30 μg/ml), 1 mg/ml compound): 94.5%; Activation Efficiencies (%) ([5]; Human non-small cell lung cancer A549 tumor tissue homogenate (30 μg/ml), 1 mg/ml compound): 80.7%; Activation Efficiencies (%) ([6]; Human ovarian cancer SK-OV-3 tumor tissue homogenate (30 μg/ml), 1 mg/ml compound): 94.3%; Activation Efficiencies (%) ([7]; Human pancreatic cancer Panc-1 tumor tissue homogenate (30 μg/ml), 1 mg/ml compound): 91.6%; Activation Efficiencies (%) ([8]; Human prostate cancer PC-3 tumor tissue homogenate (30 μg/ml), 1 mg/ml compound): 98.3%; Activation Efficiencies (%) ([9]; Human renal cancer OS-RC-2 tumor tissue homogenate (30 μg/ml), 1 mg/ml compound): 67.4%; Size of tumor (mm^3) Day 18 (D121 lung tumor cells; D121 immunized C57 mice, 13.2 μmol/kg weekly, PDL1 antibody 5 μg/kg where combined, Day 18): 425.67 ± 126.67 mm^3; CD8: CD45 (%) (tumor CD8+ T cells; D121 immunized C57 mice, 13.2 μmol/kg, ratio of CD8 positive cells in CD45 positive cells of tumor): 18.4% |
| COCCOCCOCCOCCOCCOCC(=O)N[C@H](C)C(=O)N[C@H](C)C(=O)N[C@H](CC(N)=O)C(=O)Nc1ccc(COC(=O)OC(C(=O)OC2C[C@@]3(O)[C@@H](OC(=O)c4ccccc4)[C@H]4[C@](C)(C(=O)[C@H](OC(C)=O)C(=C2C)C3(C)C)[C@@H](O)CC2OC[C@]24OC(C)=O)[C@@H](NC(=O)c2ccccc2)c2ccccc2)cc1 (some centres unmarked) [S2′] | greatly improved | 91.4% | 73.3% | 89.9% | 84.6% | 89.4% | 84.6% | 93.8% | 98.4% | 91.5% | 331.57 ± 114.74 mm^3 | 78.9% | 18.1% |  |
| COCCOCCOCCOCCOCCOCCOCCOCCOCCOCCOCCOCC(=O)N[C@H](C)C(=O)N[C@H](C)C(=O)N[C@H](CC(N)=O)C(=O)Nc1ccc(COC(=O)OC(C(=O)OC2C[C@@]3(O)[C@@H](OC(=O)c4ccccc4)[C@H]4[C@](C)(C(=O)[C@H](OC(C)=O)C(=C2C)C3(C)C)[C@@H](O)CC2OC[C@]24OC(C)=O)[C@@H](NC(=O)c2ccccc2)c2ccccc2)cc1 (some centres unmarked) [S3′] | greatly improved | 90.4% | 70.2% | 91.4% | 83.5% | 81.4% | 79.3% | 91.5% | 96.3% | 86.4% | 357.63 ± 194.54 mm^3 | 77.3% | 16.7% | activation efficiency (%) ([1]; human breast cancer (MDA-MB435) tumor tissue homogenates pH6.0, 100 μg, 1 mg/ml, control compounds vs S1′-S4′): 91.5% |
